Source: paper PMC6367500, “18β-glycyrrhetyl-3-O-sulfate would be a causative agent of licorice-induced pseudoaldosteronism” (Scientific Reports, 2019)

Assays:
[1] = parameters: method as in PMID 17331546; settings: guinea pigs; cited from earlier work
[2] = Biliary excretion of GA metabolites in SD rats injected i.v. with GA; type: in vivo; settings: GA 0.2 mg/kg i.v.
Experimental: Figure 3 Pharmacokinetic profiles of GL metabolites in SD rats (A,C,E,F) and EHBRs (B,D) after the administration of GA. GA (200 mg/kg) was administered orally to anesthetized SD rats or EHBRs, and plasma and urine were collected for 12 h (A–D). GA (0.2 mg/kg) was intravenously injected into anesthetized SD rats in which the biliary tract was cannulated. Then, bile samples were collected for 4 h (E). GA (0.2 mg/kg) was intravenously injected into conscious SD rats, and the feces was collected for 24 h. […] Since the determined lavels of 3MGA for B and D, 3 for C, GA for D, and all compounds except for 3 for E were relatively low; their magnified versions of their graphs are shown at the top or as an inside of each graph. The concentrations of GA metabolites were measured by LC-MS/MS, and data are plotted as mean ± S.E. (n = 4 for A–D,F; n = 3 for E).
GA, 3MGA, and compounds 1–3 were gradually excreted into the bile in SD rats injected i.v. with GA (0.2 mg/kg) and the accumulation of 3 in the bile at 4 h was 12-, 1.5 × 10^3-, 32-, and 15-fold those of GA, 3MGA, 1, and 2, respectively (Fig. 3E). […] GA, 3, and 2 were found in the feces of SD rats collected for 24 h after the i.v. injection of GA (0.2 mg/kg), while 3MGA and 1 were not found in the feces (Fig. 3F).
Female SD rats or EHBRs (9-week-old) were anesthetized by an intraperitoneal (i.p.) injection of urethane (1 g/kg) and their jugular veins were exposed. GA suspended in 0.5% CMC was then administered orally (200 mg/kg) to the unconscious rats, and blood samples were collected from the jugular vein; urine samples were collected using a metabolic cage at an appropriate time over a 12-h period. […] Feces were homogenized in phosphate-buffered saline (PBS; 0.15 M, pH 7.2), centrifuged (1.2 × 10^4 g, 10 min), and the supernatants were collected. After 1 week as a washout period, female SD rats were anesthetized by an i.p. injection of urethane (1 g/kg) and their biliary tract was cannulated. GA (0.2 mg/kg) was injected into the jugular vein, and the bile was collected every hour for 4 h. Aliquots (10 µl) of plasma, urine, homogenate of feces, or bile were mixed with 20 µl of subtilisin (0.91 U/ml) and incubated at 37 °C for 30 min, followed by the addition of 70 µl of astragaloside IV solution (1 µg/ml in ethanol containing 0.5% formic acid, used as internal standard), and kept at −20 °C for 30 min. […] The transitions (precursor to daughter) monitored and retention times were as follows: ESI(+) 743.4 to 567.5 m/z for compound 1 (5.5 min), ESI(−) 565.5 to 96.5 m/z for 2 (6.2 min), ESI(−) 549.5 to 96.5 m/z for 3 (8.1 min), ESI(+) 647.6 to 453.6 m/z for 3MGA (9.2 min), ESI(+) 471.3 to 91.0 m/z for GA (8.8 min), ESI(+) 823.5 to 453.6 m/z for GL (10.8 min), and ESI(+) 785.4 to 143.0 m/z for astragaloside IV (3.0 min). Linear regressions over the concentration range of 32 nM to 20 µM for each compound were examined using the peak-area ratio of the compounds to their internal standards and the least-squares method (r^2 > 0.98).

accumulation in bile at 4 h relative to that of 1 ([2]; biliary tract cannulated) [fold] | accumulation in bile at 4 h relative to that of 2 ([2]; biliary tract cannulated) [fold] | accumulation in bile at 4 h relative to that of 3MGA ([2]; biliary tract cannulated) | accumulation in bile at 4 h relative to that of GA ([2]; biliary tract cannulated) [fold] | SMILES | hypokalemia after i.v. injection [1] | rank among GA metabolites eliminated into bile [2]
 |  |  |  | CC1(C)[C@@H](O[C@@H]2O[C@H](C(=O)O)[C@@H](O)[C@H](O)[C@H]2O)CC[C@]2(C)[C@H]3C(=O)C=C4[C@@H]5C[C@@](C)(C(=O)O)CC[C@]5(C)CC[C@@]4(C)[C@]3(C)CC[C@@H]12 [3MGA, 3-monoglucuronyl glycyrrhetinic acid, reference compound] | caused hypokalemia | 
32 | 15 | 1.5 × 10^3 fold | 12 | CC1(C)[C@@H](OS(=O)(=O)O)CC[C@]2(C)[C@H]3C(=O)C=C4[C@@H]5C[C@@](C)(C(=O)O)CC[C@]5(C)CC[C@@]4(C)[C@]3(C)CC[C@@H]12 [compound 3, 18β-glycyrrhetyl-3-O-sulfate] |  | major metabolite of GA eliminated into the bile
